Test results published in US20250197409A1, “BIFUNCTIONAL COMPOUND AND PHARMACEUTICAL COMPOSITION COMPRISING THE BIFUNCTIONAL COMPOUND, AND METHOD FOR TREATING ANDROGEN RECEPTOR RELATED DISEASE BY USING THE SAME” (ANHORN MEDICINES CO., LTD., priority 2022, published 2025).
Read-outs that look alike come from different tables or passages of the source.

Biological target: T1, androgen receptor (Homo sapiens, UniProt P10275, T878A)
T1 construct: host or cells: LNCaP.FGC
Assay: Androgen receptor degradation assay using Western blot analysis
Format: cell-based
Procedure: Cells not treated with any of the above-mentioned compounds are used as a negative control.
The internal loading control GAPDH was detected using a mouse monoclonal antibody (1:5000) (GTX627408, GeneTex International Corp., HsinChu City, Taiwan R.O.C.) and a goat anti-mouse HRP-conjugated secondary antibody (1:5000 dilution) (C04001, Croyez Bioscience Co., Ltd., Taipei City, Taiwan R.O.C.).
AR remaining percentage was determined by the intensity difference of AR signals (each was normalized by the corresponding internal loading control GAPDH) between the protein samples from the untreated cells (100%) and those from the treated cells. “Cpd. #” indicates the compound number hereinabove.
In addition, several compounds were selected to prepare a treatment stock solutions at 100 nM in RPMI medium. The treatment stock solutions were separately serially diluted (10×) with RPMI medium for treating LNCaP.FGC cells seeded with 2×10^5 cells per well in 24-well tissue culture plates. A calibration curve was determined by the serial diluted samples for each compound, and the concentration needed for 50% AR degradation (AR DC50) for each compound was calculated.

[1] = 24 h, LNCaP.FGC cells, 100 nM, 24 hr, normalized to GAPDH, untreated cells = 100%; read-out: Androgen Receptor Remaining (%)
[2] = read-out: AR DC50 (concentration needed for 50% AR degradation); LNCaP.FGC cells, serial 10x dilutions from 100 nM
[3] = 24 h, read-out: Androgen Receptor Remaining (%), LNCaP.FGC cells, 100 nM, 24 hr, normalized to GAPDH, untreated cells = 100%
[4] = LNCaP.FGC cells, serial 10x dilutions from 100 nM; read-out: AR DC50 (concentration needed for 50% AR degradation)

T1 sequence (P10275 whole entry T878A): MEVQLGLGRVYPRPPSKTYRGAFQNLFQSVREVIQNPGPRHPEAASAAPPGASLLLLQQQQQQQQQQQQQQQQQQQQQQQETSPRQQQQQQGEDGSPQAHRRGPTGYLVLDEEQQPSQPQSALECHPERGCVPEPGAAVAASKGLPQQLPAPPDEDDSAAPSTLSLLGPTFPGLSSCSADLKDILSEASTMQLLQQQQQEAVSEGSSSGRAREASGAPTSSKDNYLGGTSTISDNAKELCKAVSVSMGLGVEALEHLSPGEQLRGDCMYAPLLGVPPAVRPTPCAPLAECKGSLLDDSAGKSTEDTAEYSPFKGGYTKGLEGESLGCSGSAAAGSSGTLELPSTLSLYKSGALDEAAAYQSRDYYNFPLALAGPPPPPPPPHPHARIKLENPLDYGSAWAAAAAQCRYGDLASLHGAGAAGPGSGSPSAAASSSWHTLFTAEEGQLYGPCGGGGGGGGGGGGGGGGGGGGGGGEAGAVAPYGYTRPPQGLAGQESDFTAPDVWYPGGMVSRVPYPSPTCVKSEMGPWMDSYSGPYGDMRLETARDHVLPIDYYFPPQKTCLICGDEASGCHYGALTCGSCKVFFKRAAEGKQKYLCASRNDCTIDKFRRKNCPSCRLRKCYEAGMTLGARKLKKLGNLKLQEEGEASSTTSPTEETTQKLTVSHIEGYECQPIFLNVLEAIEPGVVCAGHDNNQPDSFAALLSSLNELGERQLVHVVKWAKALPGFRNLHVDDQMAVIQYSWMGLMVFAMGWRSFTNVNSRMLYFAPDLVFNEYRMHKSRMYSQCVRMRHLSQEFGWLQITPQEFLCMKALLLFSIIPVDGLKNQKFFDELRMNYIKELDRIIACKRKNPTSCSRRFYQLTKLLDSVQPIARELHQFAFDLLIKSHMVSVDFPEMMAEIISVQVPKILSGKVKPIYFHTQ
T1 sequence (Q96SW2 whole entry partner): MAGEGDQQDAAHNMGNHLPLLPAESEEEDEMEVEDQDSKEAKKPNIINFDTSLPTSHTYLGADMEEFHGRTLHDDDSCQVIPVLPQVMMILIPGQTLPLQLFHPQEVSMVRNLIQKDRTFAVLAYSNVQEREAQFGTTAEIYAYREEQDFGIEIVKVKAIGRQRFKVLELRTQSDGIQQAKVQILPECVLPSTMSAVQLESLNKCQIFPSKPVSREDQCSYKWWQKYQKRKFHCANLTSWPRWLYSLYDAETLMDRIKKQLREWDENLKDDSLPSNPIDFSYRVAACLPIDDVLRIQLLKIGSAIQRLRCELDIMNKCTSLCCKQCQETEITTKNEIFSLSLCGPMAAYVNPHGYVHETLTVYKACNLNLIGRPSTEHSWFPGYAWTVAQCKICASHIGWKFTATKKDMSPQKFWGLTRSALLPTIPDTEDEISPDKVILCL

Row | remaining activity at 0.1 µM [1] | DC50 [4] | Compound | DC50 [2] | remaining activity at 0.1 µM [3]
1 | 75% | – | Cn1c2c(c3ccc(OCC4CCN(c5ccc(C(=O)N[C@H]6CC[C@H](Oc7ccc(C#N)c(Cl)c7)CC6)cn5)CC4)cc31)C(=O)N(C1CCC(=O)N(CO)C1=O)C2=O (some centres unmarked) [Compound 34] | – | –
2 | 75% | – | Cn1c2c(c3ccc(OCC4CCN(c5ccc(C(=O)N[C@H]6CC[C@H](Oc7ccc(C#N)c(Cl)c7)CC6)cn5)CC4)cc31)C(=O)N(C1CCC(=O)NC1=O)C2=O (some centres unmarked) [Compound 35] | – | –
3 | 16% | 10 to 25 nM | Cn1c2c(c3ccc(OCCCN4CCN(c5ccc(C(=O)N[C@H]6CC[C@H](Oc7ccc(C#N)c(Cl)c7)CC6)nn5)CC4)cc31)C(=O)N(C1CCC(=O)NC1=O)C2=O (some centres unmarked) [Compound 39] | – | –
4 | 29% | > 100 nM | Cn1c2c(c3ccc(OCCCN4CCN(c5ccc(C(=O)N[C@H]6C(C)(C)[C@H](Oc7ccc(C#N)c(Cl)c7)C6(C)C)nn5)CC4)cc31)C(=O)N(C1CCC(=O)NC1=O)C2=O (some centres unmarked) [Compound 40] | – | –
5 | 81% | – | Cn1c2c(c3ccc(NC(=O)CN4CCN(c5ccc(C(=O)N[C@H]6CC[C@H](Oc7ccc(C#N)c(Cl)c7)CC6)nn5)CC4)cc31)C(=O)N(C1CCC(=O)NC1=O)C2=O (some centres unmarked) [Compound 41] | – | –
6 | 30% | 10 to 25 nM | Cn1c2c(c3ccc(NC(=O)CN4CCN(c5ccc(C(=O)N[C@H]6C(C)(C)[C@H](Oc7ccc(C#N)c(Cl)c7)C6(C)C)cn5)CC4)cc31)C(=O)N(C1CCC(=O)NC1=O)C2=O (some centres unmarked) [Compound 42] | – | –
7 | 26% | 25 to 100 nM | Cn1c2c(c3cccc(OCCCN4CCN(c5ccc(C(=O)N[C@H]6CC[C@H](Oc7ccc(C#N)c(Cl)c7)CC6)nn5)CC4)c31)C(=O)N(C1CCC(=O)NC1=O)C2=O (some centres unmarked) [Compound 43] | – | –
8 | – | 25 to 100 nM | Cn1c2c(c3ccc(OCCCN4CCC(c5ncc(C(=O)N[C@H]6CC[C@H](Oc7ccc(C#N)c(Cl)c7)CC6)cn5)CC4)cc31)C(=O)N(C1CCC(=O)NC1=O)C2=O (some centres unmarked) [Compound 44] | – | –
9 | – | 25 to 100 nM | Cn1c2c(c3ccc(OCCN4CCC(c5ncc(C(=O)N[C@H]6CC[C@H](Oc7ccc(C#N)c(Cl)c7)CC6)cn5)CC4)cc31)C(=O)N(C1CCC(=O)NC1=O)C2=O (some centres unmarked) [Compound 45] | – | –
10 | 45% | 25 to 100 nM | Cn1c2c(c3ccc(NC(=O)CN4CCN(c5ccc(C(=O)N[C@H]6C(C)(C)[C@H](Oc7ccc(C#N)c(Cl)c7)C6(C)C)nn5)CC4)cc31)C(=O)N(C1CCC(=O)NC1=O)C2=O (some centres unmarked) [Compound 50] | – | –

Continued, compound first:

Row | Compound | remaining activity at 0.1 µM [1] | DC50 [4] | DC50 [2] | remaining activity at 0.1 µM [3]
11 | CCn1c2c(c3ccc(OCC(C)COC4CCN(c5ccc(C(=O)N[C@H]6CC[C@H](Oc7ccc(C#N)c(Cl)c7)CC6)nn5)CC4)cc31)C(=O)N(C1CCC(=O)NC1=O)C2=O (some centres unmarked) [Compound 36] | – | – | 10 to 25 nM | –
12 | CCn1c2c(c3ccc(OCCCN4CCN(c5ccc(C(=O)N[C@H]6C(C)(C)[C@H](Oc7ccc(C#N)c(Cl)c7)C6(C)C)nn5)CC4)cc31)C(=O)N(C1CCC(=O)NC1=O)C2=O (some centres unmarked) [Compound 37] | – | – | – | 55%
13 | CCn1c2c(c3ccc(OCCCN4CCC(c5ncc(C(=O)N[C@H]6CC[C@H](Oc7ccc(C#N)c(Cl)c7)CC6)cn5)CC4)cc31)C(=O)N(C1CCC(=O)NC1=O)C2=O (some centres unmarked) [Compound 38] | – | – | 25 to 100 nM | –
14 | CCn1c2c(c3ccc(OCCCN4CCCN(c5ccc(C(=O)N[C@H]6CC[C@H](Oc7ccc(C#N)c(Cl)c7)CC6)nn5)CC4)cc31)C(=O)N(C1CCC(=O)NC1=O)C2=O (some centres unmarked) [Compound 46] | – | – | 10 to 25 nM | 20%
15 | CCn1c2c(c3ccc(OCCCN4C5CCC4CN(c4ccc(C(=O)N[C@H]6CC[C@H](Oc7ccc(C#N)c(Cl)c7)CC6)nn4)C5)cc31)C(=O)N(C1CCC(=O)NC1=O)C2=O (some centres unmarked) [Compound 47] | – | – | 10 to 25 nM | 19%
16 | CCn1c2c(c3ccc(OCCCN4CCC5(CC4)CN(c4ccc(C(=O)N[C@H]6CC[C@H](Oc7ccc(C#N)c(Cl)c7)CC6)nn4)C5)cc31)C(=O)N(C1CCC(=O)NC1=O)C2=O (some centres unmarked) [Compound 48] | – | – | < 10 nM | 20%
17 | CCn1c2c(c3ccc(OCCCN4CCC5(CC4)CN(c4ccc(C(=O)N[C@H]6C(C)(C)[C@H](Oc7ccc(C#N)c(Cl)c7)C6(C)C)nn4)C5)cc31)C(=O)N(C1CCC(=O)NC1=O)C2=O (some centres unmarked) [Compound 49] | – | – | 25 to 100 nM | 36%
